Test results published in patent publication US6838416B2, “Herbicidal 5-benzyloxymethyl-1,2-isoxazoline derivatives” (Korea Research Institute of Chemical Technology, priority 2000, dated 2005).

Key:
ECHOR (seed) = assay: Assay for herbicidal activity, paddy pots: ECHOR; assay type: in vivo, Echinochloa crus-galli var. oryzicola; details: three weeks after application, 0 untreated control, 100 complete kill
Description: (§1) To evaluate herbicidal activity against the paddy weeds in the paddy rice (ORYSA: Oryza sativa L.), the herbicidal activity of the compounds of the invention was compared to that of the compound No.109 (compound A) disclosed in U.S. Pat. […] The paddy weeds tested were ECHOR (Echinochloa crus-galli var. oryzicola), SCPJU (Scirpus juncoides ROXB), MOOVA (Monochoria vaginalis […] (Cyperus serotinus ROTTB), and SAGPY (Sagittaria pygmaea MTQ). The vessels employed were plastic pots having an area of 140 cm^2 and filled with a sandy loam soil containing 1.2% organic matter (pH 6).

MOOVA (seed) = assay: Assay for herbicidal activity, paddy pots: MOOVA; assay type: in vivo, Monochoria vaginalis PRESL; details: three weeks after application, 0 untreated control, 100 complete kill
Description: as §1

CYPSE (tuber) = assay: Assay for herbicidal activity, paddy pots: CYPSE; assay type: in vivo, Cyperus serotinus ROTTB; details: three weeks after application, 0 untreated control, 100 complete kill
Description: as §1

ORYSA 2-leaf stage = assay: Assay for herbicidal activity on the 2-leaf stage weeds and rice plants: rice 2-leaf stage; assay type: in vivo, Oryza sativa L.; details: applied at 2-leaf stage, 0 untreated control, 100 complete kill
Description: (§2) The vessels employed were plastic pots having an area of 140 cm^2 and filled with a sandy loam soil containing 1.2% organic matter (pH 6). Pregerminated seed of rice (ORYSA: Oryza sativa L.) and seed of ECHOR (Echinochloa crus-galli var oryzicola) were seeded on the soil surface, respectively. The pots were then watered at the depth of 3 cm just after seeding.
(§3) Seven days after seeding, the pregerminated seeds of rice were seeded on the soil face whilst the early seeded rice in the same pots and barnyard grass (ECHOR) grew up to the 2-leaf stage. Two days after, a solution of the compound of Example 8 and Tween-20 as a non-ionic emulsifier in 50% acetone, was diluted with water to a concentration of 0.016, 0.063, 0.25, 1 and 4.0 kg/ha, respectively and applied evenly to the test pots.
(§4) Three weeks after starting from the beginning, the application of the herbicide, the herbicidal activity on paddy weeds and the phytotoxicity to the paddy rice plant were visually rated by a percentage grading wherein 0 indicates as an untreated control and 100 indicates complete kill. The results are shown in the following

ECHOR 2-leaf stage = assay: Assay for herbicidal activity on the 2-leaf stage weeds and rice plants: ECHOR 2-leaf stage; assay type: in vivo, Echinochloa crus-galli var oryzicola; details: applied at 2-leaf stage, 0 untreated control, 100 complete kill
Description: as §2, §3, §4

ORYSA seed = assay: Assay for herbicidal activity on the 2-leaf stage weeds and rice plants: rice seed; assay type: in vivo, Oryza sativa L.; details: applied two days after seeding pregerminated seeds, 0 untreated control, 100 complete kill
Description: as §2, §3, §4

SAGPY (tuber) = assay: Assay for herbicidal activity, paddy pots: SAGPY; assay type: in vivo, Sagittaria pygmaea MTQ; details: three weeks after application, 0 untreated control, 100 complete kill
Description: as §1

SCPJU (seed) = assay: Assay for herbicidal activity, paddy pots: SCPJU; assay type: in vivo, Scirpus juncoides ROXB; details: three weeks after application, 0 untreated control, 100 complete kill
Description: as §1

ORYSA (seed) = assay: Assay for herbicidal activity, paddy pots: phytotoxicity to seeded (pregerminated) rice; assay type: in vivo, Oryza sativa L.; details: three weeks after application, 0 untreated control, 100 complete kill
Description: as §1

ORYSA (3-leaf stage) = assay: Assay for herbicidal activity, paddy pots: phytotoxicity to transplanted rice seedlings; assay type: in vivo, Oryza sativa L.; details: three weeks after application, 0 untreated control, 100 complete kill
Description: as §1

SMILES | ECHOR (seed) herbicidal activity, visual percentage grading (ECHOR (seed); 0.016 kg/ha) [%] | ECHOR (seed) herbicidal activity, visual percentage grading (ECHOR (seed); 0.063 kg/ha) [%] | ECHOR (seed) herbicidal activity, visual percentage grading (ECHOR (seed); 0.250 kg/ha) [%] | ECHOR (seed) herbicidal activity, visual percentage grading (ECHOR (seed); 1.000 kg/ha) [%] | ECHOR (seed) herbicidal activity, visual percentage grading (ECHOR (seed); 4.000 kg/ha) [%] | MOOVA (seed) herbicidal activity, visual percentage grading (MOOVA (seed); 0.016 kg/ha) [%] | MOOVA (seed) herbicidal activity, visual percentage grading (MOOVA (seed); 0.063 kg/ha) [%] | MOOVA (seed) herbicidal activity, visual percentage grading (MOOVA (seed); 0.250 kg/ha) [%] | MOOVA (seed) herbicidal activity, visual percentage grading (MOOVA (seed); 1.000 kg/ha) [%] | MOOVA (seed) herbicidal activity, visual percentage grading (MOOVA (seed); 4.000 kg/ha) [%] | CYPSE (tuber) herbicidal activity, visual percentage grading (CYPSE (tuber); 0.016 kg/ha) [%] | CYPSE (tuber) herbicidal activity, visual percentage grading (CYPSE (tuber); 0.063 kg/ha) [%] | CYPSE (tuber) herbicidal activity, visual percentage grading (CYPSE (tuber); 0.250 kg/ha) [%] | CYPSE (tuber) herbicidal activity, visual percentage grading (CYPSE (tuber); 1.000 kg/ha) [%] | CYPSE (tuber) herbicidal activity, visual percentage grading (CYPSE (tuber); 4.000 kg/ha) [%] | SAGPY (tuber) herbicidal activity, visual percentage grading (SAGPY (tuber); 0.016 kg/ha) [%] | SAGPY (tuber) herbicidal activity, visual percentage grading (SAGPY (tuber); 0.063 kg/ha) [%] | SAGPY (tuber) herbicidal activity, visual percentage grading (SAGPY (tuber); 0.250 kg/ha) [%] | SAGPY (tuber) herbicidal activity, visual percentage grading (SAGPY (tuber); 1.000 kg/ha) [%] | SAGPY (tuber) herbicidal activity, visual percentage grading (SAGPY (tuber); 4.000 kg/ha) [%] | also measured
Cc1ccsc1C1=NOC(C)(COCc2c(F)cccc2F)C1 (stereo not drawn) [EXAMPLE 8, 5-(2,6-difluorobenzyl)oxymethyl-5-methyl-3-(4-methylthiophene-5-yl)-1,2-isoxazoline] | 50 | 100 | 100 | 100 | 100 | 50 | 90 | 90 | 100 | 100 | 0 | 50 | 90 | 100 | 100 | 0 | 0 | 0 | 50 | 80 | ORYSA 2-leaf stage phytotoxicity, visual percentage grading (ORYSA 2-leaf stage; 0.016 kg/ha): 0%; ORYSA 2-leaf stage phytotoxicity, visual percentage grading (ORYSA 2-leaf stage; 0.063 kg/ha): 0%; ORYSA 2-leaf stage phytotoxicity, visual percentage grading (ORYSA 2-leaf stage; 0.250 kg/ha): 0%; ORYSA 2-leaf stage phytotoxicity, visual percentage grading (ORYSA 2-leaf stage; 1.000 kg/ha): 20%; ORYSA 2-leaf stage phytotoxicity, visual percentage grading (ORYSA 2-leaf stage; 4.000 kg/ha): 65%; ECHOR 2-leaf stage herbicidal activity, visual percentage grading (ECHOR 2-leaf stage; 0.016 kg/ha): 45%; ECHOR 2-leaf stage herbicidal activity, visual percentage grading (ECHOR 2-leaf stage; 0.063 kg/ha): 95%; ECHOR 2-leaf stage herbicidal activity, visual percentage grading (ECHOR 2-leaf stage; 0.250 kg/ha): 100%; ECHOR 2-leaf stage herbicidal activity, visual percentage grading (ECHOR 2-leaf stage; 1.000 kg/ha): 100%; ECHOR 2-leaf stage herbicidal activity, visual percentage grading (ECHOR 2-leaf stage; 4.000 kg/ha): 100%; ORYSA (seed) phytotoxicity, visual percentage grading (ORYSA seed; 0.016 kg/ha): 0%; ORYSA (seed) phytotoxicity, visual percentage grading (ORYSA seed; 0.063 kg/ha): 20%; ORYSA (seed) phytotoxicity, visual percentage grading (ORYSA seed; 0.250 kg/ha): 55%; ORYSA (seed) phytotoxicity, visual percentage grading (ORYSA seed; 1.000 kg/ha): 80%; ORYSA (seed) phytotoxicity, visual percentage grading (ORYSA seed; 4.000 kg/ha): 95%; SCPJU (seed) herbicidal activity, visual percentage grading (SCPJU (seed); 0.016 kg/ha): 0%; SCPJU (seed) herbicidal activity, visual percentage grading (SCPJU (seed); 0.063 kg/ha): 10%; SCPJU (seed) herbicidal activity, visual percentage grading (SCPJU (seed); 0.250 kg/ha): 10%; SCPJU (seed) herbicidal activity, visual percentage grading (SCPJU (seed); 1.000 kg/ha): 40%; SCPJU (seed) herbicidal activity, visual percentage grading (SCPJU (seed); 4.000 kg/ha): 100%
Cc1ccsc1C1=NOC(C)(COCc2ccccc2F)C1 (stereo not drawn) [EXAMPLE 6, 5-(2-fluorobenzyl)oxymethyl-5-methyl-3-(4-methylthiophene-5-yl)-1,2-isoxazoline] | 20 | 100 | 100 | 100 | 100 | 0 | 70 | 80 | 80 | 100 | 100 | 100 | 100 | 100 | 100 | 0 | 0 | 0 | 30 | 30 | ORYSA (seed) phytotoxicity, visual percentage grading (ORYSA (seed); 0.016 kg/ha): 0%; ORYSA (seed) phytotoxicity, visual percentage grading (ORYSA (seed); 0.063 kg/ha): 40%; ORYSA (seed) phytotoxicity, visual percentage grading (ORYSA (seed); 0.250 kg/ha): 100%; ORYSA (seed) phytotoxicity, visual percentage grading (ORYSA (seed); 1.000 kg/ha): 100%; ORYSA (seed) phytotoxicity, visual percentage grading (ORYSA (seed); 4.000 kg/ha): 100%; ORYSA (3-leaf stage) phytotoxicity, visual percentage grading (ORYSA (3-leaf stage); 0.016 kg/ha): 0%; ORYSA (3-leaf stage) phytotoxicity, visual percentage grading (ORYSA (3-leaf stage); 0.063 kg/ha): 20%; ORYSA (3-leaf stage) phytotoxicity, visual percentage grading (ORYSA (3-leaf stage); 0.250 kg/ha): 20%; ORYSA (3-leaf stage) phytotoxicity, visual percentage grading (ORYSA (3-leaf stage); 1.000 kg/ha): 30%; ORYSA (3-leaf stage) phytotoxicity, visual percentage grading (ORYSA (3-leaf stage); 4.000 kg/ha): 30%; SCPJU (seed) herbicidal activity, visual percentage grading (SCPJU (seed); 0.016 kg/ha): 20%; SCPJU (seed) herbicidal activity, visual percentage grading (SCPJU (seed); 0.063 kg/ha): 80%; SCPJU (seed) herbicidal activity, visual percentage grading (SCPJU (seed); 0.250 kg/ha): 80%; SCPJU (seed) herbicidal activity, visual percentage grading (SCPJU (seed); 1.000 kg/ha): 100%; SCPJU (seed) herbicidal activity, visual percentage grading (SCPJU (seed); 4.000 kg/ha): 100%
